Data as given in patent US20070021501A1, “Methods of treating epileptogenesis” (priority 2005, published 2007).

Tests used:
[1] = system: lithium-pilocarpine model of temporal lobe epilepsy in the rat; assay: Quantification of cell densities in hippocampus, thalamus and cortex after Li-pilo SE (Example 1); format: in vivo; details: for more damage (worsening of cell loss) compared with pilo-DZP rats: TC 10 mg/kg
Procedure: Quantification of cell densities was performed at 6 days after SE on 8 pilo-DZP, 8 pilo-TC10, 7 pilo-TC30, 7 pilo-TC60, and 6 saline-saline rats.
Cell counts were performed twice in a blind manner and were the average of at least 3 values from 2 adjacent sections in each individual animal. Counts involved only cells larger than 10 μm, smaller ones being considered as glial cells.
For the comparison of the characteristics of SE in pilo-saline and pilo-test compound animals, a non-paired Student's t-test was used. The comparison between the number of rats seizing in both groups was performed by means of a Chi square test. For neuronal damage, statistical analysis between groups was performed using ANOVA followed by a Fisher's test for multiple comparisons using the Statview software (Fisher R A, 1946a, Statistical Methods for Research Workers (10th edition) Oliver & Boyd, Edinburgh; Fisher R A, 1946b, The Design of Experiments (4th edition) Oliver & Boyd, Edinburgh) Behavioral and EEG Characteristics of Lithium-pilocarpine Status Epilepticus

[2] = system: lithium-pilocarpine model of temporal lobe epilepsy in the rat; assay: Mossy fiber sprouting in hippocampus, Timm staining (Example 1); format: in vivo
Procedure: At 2 months after the onset of spontaneous recurrent seizures, mossy fiber sprouting was examined on rats in the chronic period exposed to the test compound or DZP and in 3 saline-saline rats. Animals were deeply anaesthetized and perfused transcardially with saline followed by 100 ml of 1.15% (w/v) Na2S in 0.1 M phosphate buffer, and 100 ml of 4% (v/v) formaldehyde in 0.1 M phosphate buffer. Brains were removed from skull, post-fixed in 4% formaldehyde during 3-5 h and 40 μm sections were cut on a sliding vibratome and mounted on gelatin-coated slides.
The following day, sections were developed in the dark in a 26° C. solution of 50% (w/v) arabic gum (160 ml), sodium citrate buffer (30 ml), 5.7% (w/v) hydroquinone (80 ml) and 10% (w/v) silver nitrate (2.5 ml) during 40-45 min. The sections were then rinsed with tap water at 40° C. during at least 45 min, rinsed rapidly with distilled water and allowed to dry. They were dehydrated in ethanol and coverslipped.
Mossy fiber sprouting was evaluated according to criteria previously described in dorsal hippocampus (Cavazos et al., 1991, J Neurosci 11:2795-2803.), which are follows: 0—no granules between the tips and crest of the DG; 1—sparse granules in the supragranular region in a patchy distribution between the tips and crest of DG; 2—more numerous granules in a continuous distribution between the tips and crest of DG; 3—prominent granules in a continuous pattern between tips and crest, with occasional patches of confluent granules between tips and crest; 4—prominent granules that form a confluent dense laminar band between tips and crest and 5—confluent dense laminar band of granules that extends into the inner molecular layer.

[3] = system: lithium-pilocarpine status epilepticus in the rat; assay: EEG patterns during and after Li-pilo SE (Example 1); format: in vivo
Procedure: Male Wistar rats weighing 225-250 g, provided by Janvier Breeding Center (Le Genest-St-lste, France) were housed under controlled standard conditions (light/dark cycle, 7.00 a.m.-7.00 p.m. lights on), with food and water available ad libitum. All animal experimentation was performed in accordance with the rules of the European Communities Council Directive of Nov. 24, 1986 (86/609/EEC), and the French Department of Agriculture (License N^o 67-97). For electrode implantation, rats were anesthetized by an i.p. injection of 2.5 mg/kg diazepam (DZP, Valium, Roche, France) and […] ketamine chlorhydrate (Imalgene 1000, Rhone Merrieux, France). Four single-contact recording electrodes were placed on the skull, over the parietal cortex, two on each side.
The bilateral EEG cortical activity was recorded during the whole duration of SE and behavioral changes were noted.
The effects of the test compound on the EEG and on the latency to occurrence of SRS were investigated by daily video recording of the animals for 10 h per day and the recording of the electrographic activity twice a week for 8 h.

[4] = system: lithium-pilocarpine status epilepticus in the rat; assay: Mortality over the first 48 h after Li-pilo SE (Example 2); format: in vivo, Sprague-Dawley rats
Procedure: Adult male Sprague-Dawley rats provided by Janvier Breeding Center (Le Genest-St-lsle, France) were housed under controlled, uncrowded standard conditions at 20-22° C. (light/dark cycle, 7.00 a.m.-7.00 p.m. lights on), with food and water available ad libitum. All animal experimentation was performed in accordance with the rules of the European Communities Council Directive of Nov. 24, 1986 (86/609/EEC), and the French Department of Agriculture (License N^o 67-97).

[5] = system: lithium-pilocarpine model of temporal lobe epilepsy in the rat; assay: Latency to and frequency of spontaneous seizures, video recording (Example 2); format: in vivo, Sprague-Dawley rats
Procedure: The effects of DZP and the 4 doses of TC on epileptogenesis were investigated by daily video recording of the animals for 10 h per day. Video recording was performed for 4 weeks during which the occurrence of the first seizure was noted as well as the total number of seizures over the whole period. Animals were then taken off the video recording system and kept for 4 additional weeks in our animal facilities before they were sacrificed after a total period of 8 weeks of epilepsy.

[6] = system: lithium-pilocarpine model of temporal lobe epilepsy in the rat; assay: Quantification of cell densities (neuronal counting) 14 days after Li-pilo SE (Example 2); details: 14 days after SE; for cell loss: hippocampus CA1 pyramidal cell layer
Procedure: All rats received lithium chloride (3 meq/kg, i.p., Sigma, St Louis, Mo., U.S.A.) and about 20 h later, all animals received also methylscopolamine bromide (1 mg/kg, s.c., Sigma) that was administered to limit the peripheral effects of the convulsant. […] The effects of increasing doses of TC were studied in 5 groups of rats. […] The control group received vehicle instead of pilocarpine and TC.
For neuronal counting, animals were deeply anesthetized with 1.8 g/kg pentobarbital (Dolethal®, Vétoquinol, Lure, France). Brains were then removed and frozen. Serial 20 μm slices were cut in a cryostat, air-dried during several days before thionine staining. […] The grid of counting was placed on a well defined area of the cerebral structure of interest and counting was carried out with a microscopic enlargement of 200- or 400-fold defined for each single cerebral structure. Cell counts were performed twice on each side of three adjacent sections for each region by a single observer unaware of the animal's treatment. The number of cells obtained in the 12 counted fields in each cerebral structure was averaged. This procedure was used to minimize the potential errors that could result from double counting leading to overestimation of cell numbers. […] Counts involved only neurons with cell bodies larger than 10 μm. Cells with small cell bodies were considered as glial cells and were not counted.
For neuronal damage and epileptogenesis, statistical analysis between groups was performed by means of a one-way analysis of variance followed by a post-hoc Dunnett or Fisher test using the Statistica software.

NC(=O)OC[C@@H](O)c1ccccc1Cl [TC]
more damage (worsening of cell loss) compared with pilo-DZP rats ([1]; dorsal entorhinal cortex layers III-IV): 28% | more damage (worsening of cell loss) compared with pilo-DZP rats ([1]; ventral entorhinal cortex layers III-IV): 35% | cell loss ([1]; TC 30 mg/kg, hippocampus CA1 pyramidal layer): 35% | cell loss ([1]; TC 60 mg/kg, hippocampus CA1 pyramidal layer): 16% | reduction of neuronal damage recorded in the pilo-DZP rats ([1]; TC 60 mg/kg, piriform cortex layer II): 41% | reduction of neuronal damage recorded in the pilo-DZP rats ([1]; TC 60 mg/kg, piriform cortex layers III-IV): 44% | neuroprotection compared to pilo-DZP rats ([1]; TC 60 mg/kg, ventral entorhinal cortex layers III-IV): 31% | cell loss ([1]; pilo-test compound animals (range over doses), hilus of dentate gyrus): 69-72% | protection compared to pilo-DZP rats ([1]; test compound 60 mg/kg, CA3b): significantly neuroprotective | protection compared to pilo-DZP rats ([1]; test compound, CA3a area): did not afford any protection | mean Timm score in the upper blade of the dentate gyrus ([2]; TC 10 mg/kg (n=7)): 1.5±0.6 | mean Timm score in the upper blade of the dentate gyrus ([2]; TC 30 mg/kg (n=10)): 2.6±1.0 | mean Timm score in the upper blade of the dentate gyrus ([2]; TC 60 mg/kg, whole group (n =11)): 1.5±0.7 | EEG after injection at 24 and 48 h after SE (silent period) ([3]; TC 10 mg/kg, between 1 and 8 h after injection): no change | EEG by 6-7 h of SE ([3]; TC 10 mg/kg, cortex and hippocampus): spiking activity was still present in the cortex and the hippocampus | amplitude of the EEG by 6-7 h of SE ([3]; TC 30 mg/kg, hippocampus): came back to baseline levels | amplitude of the EEG by 6-7 h of SE ([3]; TC 60 mg/kg, hippocampus and cortex): came back to baseline levels | EEG after injection at 24 and 48 h after SE (silent period) ([3]; TC 30 and 60 mg/kg, as soon as 10 min after injection): frequency and amplitude of PEDs decreased | mortality over the first 48 h after SE ([4]; TC 30 mg/kg, group devoted to cell counting at 14 days (4/12)): 33% | mortality over the first 48 h after SE ([4]; TC 30 mg/kg, group devoted to latency to SRS and late cell counting (3/11)): 27% | mortality over the first 48 h after SE ([4]; TC 60 mg/kg, group devoted to cell counting at 14 days (1/12)): 8% | mortality over the first 48 h after SE ([4]; TC 60 mg/kg, group devoted to latency to SRS and late cell counting (0/10)): 0% | mortality over the first 48 h after SE ([4]; TC 90 mg/kg, group devoted to cell counting at 14 days (0/10)): 0% | mortality over the first 48 h after SE ([4]; TC 90 mg/kg, group devoted to latency to SRS and late cell counting (0/11)): 0% | mortality over the first 48 h after SE ([4]; TC 120 mg/kg, group devoted to cell counting at 14 days (4/12)): 33% | mortality over the first 48 h after SE ([4]; TC 120 mg/kg, group devoted to latency to SRS and late cell counting (0/9)): 0% | frequency of spontaneous seizures over the four weeks of recording ([5]; TC 30 mg/kg): tendency to be higher | percentage of rats with short latencies to seizures (shorter than 40 days after SE) ([5]; TC 90 mg/kg (4/11)): 36% | percentage of non-epileptic rats (no seizure over 150 days post-SE) ([5]; TC 120 mg/kg): 45% | percentage of rats with short latencies to seizures (shorter than 40 days after SE) ([5]; TC 120 mg/kg (1/9)): 11% | frequency of spontaneous seizures over the four weeks of recording ([5]; TC60, 90 and 120 groups): lower | neurons surviving ([6]; TC 120 mg/kg, all parts of the entorhinal cortex (range)): 85-94% | neuronal loss ([6]; TC 120 mg/kg, hilus of dentate gyrus): 53% | cell loss ([6]; TC 120 mg/kg): 12% | neuronal drop out ([6]; TC 120 mg/kg, thalamic nuclei (range)): 4-19% | cell loss (drop out) ([6]; TC30, 60 and 90 groups (range printed together with DZP group), hilus of dentate gyrus): 61-66% | cell loss ([6]; TC30, 60 or 90 rats (range over groups)): 36-47%
